The conditions of the series: solid form.

Turning to `CC(C)(C(=O)O)c1ccc(C(O)CCCN2CCC(C(O)(c3ccccc3)c3ccccc3)CC2)cc1.Cl` (centres unmarked) [polymorph φ, 2-[4-[1-hydroxy-4-[4-(hydroxydiphenylmethyl)-1-piperidyl]-butyl]phenyl]-2-methylpropanoic acid], the deliquescence result was “not deliquescent” and the hygroscopicity result is “not hygroscopic”.
